Experimental data as given in PubChem BioAssay (NCI).
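Dose response: 5 concentrations. Exposure: 48 h. Format: 96-well plates. Endpoint: linear interpolation; highest concentration if not reached. Definition used: TGI = concentration required for complete inhibition of growth.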

What was measured:
Assay in all cases: NCI tumour cell line growth inhibition, 48 h
BT-549 breast = test system: BT-549 breast
EKVX NSCLC = test system: EKVX NSCLC
HT29 colon = test system: HT29 colon
LOX IMVI melanoma = test system: LOX IMVI melanoma
MDA-MB-435 = test system: MDA-MB-435
NCI-H226 lung = test system: NCI-H226 lung
NCI-H23 lung = test system: NCI-H23 lung
OVCAR-4 ovarian = test system: OVCAR-4 ovarian
OVCAR-8 ovarian = test system: OVCAR-8 ovarian
SK-MEL-28 melanoma = test system: SK-MEL-28 melanoma
SK-MEL-5 melanoma = test system: SK-MEL-5 melanoma
SK-OV-3 ovarian = test system: SK-OV-3 ovarian
T-47D breast = test system: T-47D breast
TK-10 renal = test system: TK-10 renal
U251 CNS = test system: U251 CNS
UACC-62 melanoma = test system: UACC-62 melanoma
A549 NSCLC = test system: A549 NSCLC
MCF7 breast = test system: MCF7 breast
PC-3 prostate = test system: PC-3 prostate
UACC-257 melanoma = test system: UACC-257 melanoma

Structure (SMILES)	TGI (BT-549 breast)	TGI (EKVX NSCLC)	TGI (HT29 colon)	TGI (LOX IMVI melanoma)	TGI (MDA-MB-435)	TGI (NCI-H226 lung)	TGI (NCI-H23 lung)	TGI (OVCAR-4 ovarian)	TGI (OVCAR-8 ovarian)	TGI (SK-MEL-28 melanoma)	TGI (SK-MEL-5 melanoma)	TGI (SK-OV-3 ovarian)	TGI (T-47D breast)	TGI (TK-10 renal)	TGI (U251 CNS)	TGI (UACC-62 melanoma)	TGI (A549 NSCLC)	TGI (MCF7 breast)	TGI (PC-3 prostate)	TGI (UACC-257 melanoma)
CCCC(=O)Nc1cc(/C=C/C(=O)N2CC(CCl)c3c2cc(O)c2[nH]cc(C)c32)n(C)c1 (configuration not stated)	0.000504 µM	0.00293 µM	0.0285 µM	0.0163 µM	< 2.5e-05 µM	4e-05 µM	< 2.5e-05 µM	0.038 µM	0.000532 µM	> 0.25 µM	< 2.5e-05 µM	0.00563 µM	0.00884 µM	< 2.5e-05 µM	0.0449 µM	< 2.5e-05 µM	–	–	–	–
Oc1ccc(-c2nc3ccc(Cl)cc3s2)cc1	33.3 µM	31 µM	34.6 µM	45.9 µM	35.6 µM	41.6 µM	36.5 µM	–	39 µM	–	35.7 µM	36.4 µM	–	34.7 µM	46.9 µM	31.2 µM	45.2 µM	22.6 µM	37.5 µM	34.4 µM
CC1(C)OCC=CCO1	> 100 µM	> 100 µM	> 100 µM	> 100 µM	> 100 µM	> 100 µM	> 100 µM	> 100 µM	> 100 µM	> 100 µM	> 100 µM	> 100 µM	> 100 µM	> 100 µM	> 100 µM	> 100 µM	> 100 µM	> 100 µM	> 100 µM	> 100 µM
COc1cc(C(O)(CC#N)c2cc3c(cc2Br)OCO3)cc(OC)c1OC (configuration not stated)	> 100 µM	> 100 µM	54.9 µM	> 100 µM	13.7 µM	83.3 µM	> 100 µM	> 100 µM	> 100 µM	> 100 µM	–	> 100 µM	> 100 µM	> 100 µM	> 100 µM	> 100 µM	> 100 µM	> 100 µM	> 100 µM	> 100 µM
